From patent US12441768B2, “Compositions and methods for treating endometriosis” (EndoMet Biosciences, Inc., priority 2018, dated 2025) come the findings set out here.

Where a SMILES comes first, the peptide text is derived from it. [ ]: non-standard residue; d: D form. The star is where a group is joined. ξ: configuration not given here. NMeW = CN[C@@H](Cc1c[nH]c2ccccc12)C(=O)O; Stearoyl = CCCCCCCCCCCCCCCCCC(=O)*; ξαMeV = CC(C)C(C)(N)C(=O)O; ξαMeS = CC(N)(CO)C(=O)O; GABA = NCCCC(=O)O; βAla = NCCC(=O)O

Data set [1] relates to colon cancer cell line (SW480). It is filed as cell-based. How it is done: (§1) Peptides inhibiting β-catenin cause decreased cell viability in a colon cancer cell line (SW480) and endometriosis lesions excised from a disease animal model. Peptides from libraries described herein are characterized in their effect on cell viability, as measured using a luminescent cell viability assay (Cell Titer-Glo®, Promega, Madison, WI) and expressed as IC50 in Table 5. Peptide inhibitors were tested for their ability to inhibit cellular proliferation across 2 different β-catenin expressing pathogenic cell lines: a colon cancer cell line (SW480) and/or mouse EMS lesion cells derived from mouse model of disease. Both cells lines are naturally known to express high levels of β-catenin. Cell lines were incubated with varying concentrations of peptide concentration and assessed for viability after day 5 and 7 days. The CellTiter-Glo® Luminescent Cell Viability Assay (Promega) is used to detect viable cells. IC50 values are graphed and calculated using Prism software (GraphPad) based on the cell viability readouts. IC50 is used to assess inhibition of cell proliferation by peptide concentration and is used to calculate the inhibitory effect of each peptide across each line. The results are used to assess the therapeutic potency of the peptides. In the SW480 cell line, peptide inhibitors from Family 1 (SEQ ID NO:264) and Family 2 (SEQ ID NO:396) were added daily to the cell growth medium. After 7 days, cell viability was assessed with the Cell-Titer Glo kit (Promega, Madison, WI). […] IC50 was calculated for peptides based on the concentration at which 50% viability was observed (Table 5).

The subject of a further data set is mouse EMS lesion cells. It is filed as cell-based. The method, then:
as §1

Another data set deals with T1, β-catenin (Homo sapiens, UniProt P35222).
T1 sequence (P35222 1-781): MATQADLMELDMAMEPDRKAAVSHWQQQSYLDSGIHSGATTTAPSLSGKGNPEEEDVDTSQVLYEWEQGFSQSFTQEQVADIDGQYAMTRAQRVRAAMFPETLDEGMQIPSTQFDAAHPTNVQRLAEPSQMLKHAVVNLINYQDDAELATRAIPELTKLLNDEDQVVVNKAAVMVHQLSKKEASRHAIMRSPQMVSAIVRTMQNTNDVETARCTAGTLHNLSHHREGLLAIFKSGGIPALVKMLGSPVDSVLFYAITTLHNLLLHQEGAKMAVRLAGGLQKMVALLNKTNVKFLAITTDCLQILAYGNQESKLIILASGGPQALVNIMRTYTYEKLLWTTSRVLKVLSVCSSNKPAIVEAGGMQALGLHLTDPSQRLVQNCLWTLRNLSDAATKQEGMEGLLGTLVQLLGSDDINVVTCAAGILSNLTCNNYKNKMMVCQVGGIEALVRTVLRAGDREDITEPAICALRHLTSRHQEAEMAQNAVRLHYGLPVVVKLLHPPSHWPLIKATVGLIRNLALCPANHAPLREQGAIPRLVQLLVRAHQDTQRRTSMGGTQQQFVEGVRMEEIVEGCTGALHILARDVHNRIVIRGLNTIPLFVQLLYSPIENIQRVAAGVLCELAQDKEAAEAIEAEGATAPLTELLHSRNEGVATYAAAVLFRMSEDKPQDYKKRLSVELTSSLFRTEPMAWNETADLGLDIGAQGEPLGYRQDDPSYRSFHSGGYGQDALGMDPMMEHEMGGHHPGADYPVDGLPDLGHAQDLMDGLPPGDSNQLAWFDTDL
Description: KD50 measurement using competitive fluorescence polarization (FP) with labelled TCF4. The class given is binding. As to conditions: fluorescence polarization, β-catenin; for Kd: read-out: β-Cat FP KD. The method, boiled down:
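First, β-catenin at 100 nM is mixed with 5 nM labelled TCF4 at room temperature. Next, compound is added across serial dilutions (10 nM to 30 uM). Finally, fluorescence polarization is measured (ex 470 nm, em 520 nm); experiments are done three times.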
On the technique in general: Polarisation of emitted light reports the rotation of a fluorescent probe.

The conditions of data set [2]: % Viability non-Wnt responsive cells.
Data set [3] addresses Wnt-responsive promoter (TCF/LEF). Description: Wnt-dependent luciferase reporter assay. The class given is cell-based, murine. The method, boiled down:
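Murine 3T3 fibroblasts carrying a TCF/LEF-driven luciferase reporter, stimulated with Wnt3a in the presence of increasing peptide concentrations or vehicle. Luminescence inhibition gave EC50 values in uM.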
In general terms: In a reporter assay the amount or activity of a reporter protein is the signal.

Consider `CCCCCCCCCCCCCCCCCC(=O)N[C@@H](Cc1c[nH]c2ccccc12)C(=O)N(C)[C@@H](Cc1c[nH]c2ccccc12)C(=O)N[C@@H](CCC(=O)O)C(=O)NC(C)(CO)C(=O)N[C@H](C(=O)N[C@@H](CC(C)C)C(=O)N[C@@H](CC(=O)O)C(=O)N[C@@H](CCC(=O)O)C(=O)N[C@@H](Cc1c[nH]cn1)C(=O)NC(C)(C(=O)N[C@@H](CCC(N)=O)C(=O)N[C@@H](CCCNC(=N)N)C(=O)N[C@H](C(=O)N[C@@H](Cc1c[nH]c2ccccc12)C(=O)O)C(C)C)C(C)C)[C@@H](C)CC` (single isomer, unassigned) [393/500], for which the IC50 came out at 1.7 µM in data set [1] and 5 µM with mouse EMS lesion cells. Also, on β-catenin, the Kd was over 30 µM.

`CCCCCCCCCCCCCC(=O)NCC(=O)N[C@@H](Cc1c[nH]c2ccccc12)C(=O)N(C)[C@@H](Cc1c[nH]c2ccccc12)C(=O)N[C@@H](CCC(=O)O)C(=O)N[C@@H](CO)C(=O)N[C@H](C(=O)N[C@@H](CC(C)C)C(=O)N[C@@H](CC(=O)O)C(=O)N[C@@H](CCC(=O)O)C(=O)N[C@@H](Cc1c[nH]cn1)C(=O)N[C@H](C(=O)N[C@@H](CCC(N)=O)C(=O)N[C@@H](CCCNC(=N)N)C(=O)N[C@H](C(=O)N[C@@H](Cc1c[nH]c2ccccc12)C(=O)NCC(=O)O)C(C)C)C(C)C)[C@@H](C)CC` [compound 1] (HELM PEPTIDE1{[CCCCCCCCCCCCCC(=O)[*:2]].G.W.[meW].E.S.I.L.D.E.H.V.Q.R.V.W.G}$$$$V2.0) came in with an IC50 in data set [1] of 18.5 µM. Moreover, at β-catenin, the “β-Cat FP Hill slope” value is 0.8 and the dissociation constant (Kd) is under 0.4 µM.

The compound `CCCC[C@@H]1NC(=O)[C@@H](NC(C)=O)CCCCNC(=O)C[C@@H](C(=O)O)NC(=O)[C@H](Cc2c[nH]c3ccccc23)NC(=O)[C@H](C)NC(=O)[C@H](CC)NC(=O)[C@H]([C@@H](C)CC)NC(=O)[C@H](CC(C)C)NC(=O)[C@H](CC2CCCCC2)NC(=O)[C@H](Cc2c[nH]c3ccccc23)NC1=O` [compound 215] (HELM PEPTIDE1{[ac].K.[Nle].W.[Cha].L.I.[Abu].A.W.D}$PEPTIDE1,PEPTIDE1,2:R3-11:R3$$$V2.0) had an IC50 in the data set on mouse EMS lesion cells of over 30 µM. In data set [2], the viability stood at 106%. At β-catenin, the “β-Cat FP Hill slope” value came to 1.69. For the same compound, the EC50 in data set [3] is over 30 µM.

With `CC[C@@H]1NC(=O)[C@H]([C@@H](C)CC)NC(=O)[C@H](CC(C)C)NC(=O)[C@H](C2CCCCC2)NC(=O)[C@H](Cc2c[nH]c3ccccc23)NC(=O)[C@@H](NC(C)=O)CCCCNC(=O)C[C@@H](C(=O)O)NC(=O)[C@H](Cc2c[nH]c3ccccc23)NC(=O)[C@H](C)NC1=O` [compound 262] (HELM PEPTIDE1{[ac].K.W.[O=C([C@@H](N[*:1])C1CCCCC1)[*:2]].L.I.[Abu].A.W.D}$PEPTIDE1,PEPTIDE1,2:R3-10:R3$$$V2.0), the results for the IC50 (in data set [1]; with mouse EMS lesion cells) were 5 µM and 26.3 µM, respectively. Besides, the “β-Cat FP Hill slope” value on β-catenin came to 3. Besides, the Kd at β-catenin was 0.4 to 1 µM.

For `CCCCCCCCCCCCCCCCCC(=O)N[C@@H](Cc1c[nH]c2ccccc12)C(=O)N(C)[C@@H](Cc1c[nH]c2ccccc12)C(=O)N[C@@H](CCC(=O)O)C(=O)NC(C)(CO)C(=O)N[C@H](C(=O)N[C@@H](CC(C)C)C(=O)N[C@@H](CC(=O)O)C(=O)N[C@@H](CCC(=O)O)C(=O)N[C@@H](Cc1c[nH]cn1)C(=O)NC(C)(C(=O)N[C@@H](CCC(N)=O)C(=O)N[C@@H](CCCNC(=N)N)C(=O)N[C@H](C(=O)N[C@@H](Cc1c[nH]c2ccccc12)C(=O)NCC(=O)O)C(C)C)C(C)C)[C@@H](C)CC` (stereo partly shown) [compound 390] (Stearoyl-W[NMeW]E[ξαMeS]ILDEH[ξαMeV]QRVWG-OH), the IC50 in data set [1] was 4.7 µM. For the same compound, in data set [3], the EC50 was 7.5 to 15 µM.

Consider `CCCCCCCCCCCCCCCCCC(=O)NCCC(=O)N[C@@H](Cc1c[nH]c2ccccc12)C(=O)N(C)[C@@H](Cc1c[nH]c2ccccc12)C(=O)N[C@@H](CCC(=O)O)C(=O)NC(C)(CO)C(=O)N[C@H](C(=O)N[C@@H](CC(C)C)C(=O)N[C@@H](CC(=O)O)C(=O)N[C@@H](CCC(=O)O)C(=O)N[C@@H](Cc1c[nH]cn1)C(=O)NC(C)(C(=O)N[C@@H](CCC(N)=O)C(=O)N[C@@H](CCCNC(=N)N)C(=O)N[C@H](C(=O)N[C@@H](Cc1c[nH]c2ccccc12)C(=O)NCC(=O)O)C(C)C)C(C)C)[C@@H](C)CC` (stereo partly shown) [compound 391] ({Stearoyl-βAla}-W[NMeW]E[ξαMeS]ILDEH[ξαMeV]QRVWG-OH), for which, in data set [1], inhibition was half-maximal at 4.8 µM (IC50). In data set [3], the EC50 is under 7.5 µM.

For `CCCCCCCCCCCCCCCCCC(=O)NCCCC(=O)N[C@@H](Cc1c[nH]c2ccccc12)C(=O)N(C)[C@@H](Cc1c[nH]c2ccccc12)C(=O)N[C@@H](CCC(=O)O)C(=O)NC(C)(CO)C(=O)N[C@H](C(=O)N[C@@H](CC(C)C)C(=O)N[C@@H](CC(=O)O)C(=O)N[C@@H](CCC(=O)O)C(=O)N[C@@H](Cc1c[nH]cn1)C(=O)NC(C)(C(=O)N[C@@H](CCC(N)=O)C(=O)N[C@@H](CCCNC(=N)N)C(=O)N[C@H](C(=O)N[C@@H](Cc1c[nH]c2ccccc12)C(=O)O)C(C)C)C(C)C)[C@@H](C)CC` (stereo partly shown) [compound 395] ({Stearoyl-GABA}-W[NMeW]E[ξαMeS]ILDEH[ξαMeV]QRVW-OH), the IC50 in data set [1] is 6.8 µM. This compound displayed a 50% effective concentration (EC50) in data set [3] of 7.5 to 15 µM.

Take `CC[C@H](C)[C@@H]1NC(=O)[C@@H](NC(=O)[C@H](CCC(N)=O)NC(=O)[C@H](C)N(C)C(=O)[C@H](Cc2c[nH]c3ccccc23)NC(=O)CCC(=O)O)CCCCNC(=O)CC[C@@H](C(=O)N[C@@H](Cc2c[nH]cn2)C(=O)N[C@H](C(=O)N[C@@H](CCC(N)=O)C(=O)N[C@@H](CCCNC(=N)N)C(=O)N[C@H](C(=O)N[C@@H](Cc2c[nH]c3ccccc23)C(=O)NCC(N)=O)C(C)C)C2CCCCC2)NC(=O)[C@H](CC(=O)O)NC(=O)[C@H](CC(C)C)NC1=O` [compound 405] (HELM PEPTIDE1{[O=C(O)CCC(=O)[*:2]].W.[meA].Q.K.I.L.D.E.H.[O=C([C@@H](N[*:1])C1CCCCC1)[*:2]].Q.R.V.W.G.[am]}$PEPTIDE1,PEPTIDE1,5:R3-9:R3$$$V2.0): it took 26.8 µM to reach half-maximal inhibition in data set [1] (IC50). For the same compound, on β-catenin, the “β-Cat FP Hill slope” value is recorded as 0.7 and the Kd was under 0.4 µM. The EC50 in data set [3] lay in the range of 15 to 22.5 µM.

“Lauroyl-NH-W-NMeA-QK*ILDE*H-Chg-E*DVWK*-NH2 (WAQKILDEHGEDVWK; HELM PEPTIDE1{[CCCCCCCCCCCC(=O)[*:2]].W.[meA].Q.K.I.L.D.E.H.[O=C([C@@H](N[*:1])C1CCCCC1)[*:2]].E.D.V.W.K.[am]}$PEPTIDE1,PEPTIDE1,12:R3-16:R3|PEPTIDE1,PEPTIDE1,5:R3-9:R3$$$V2.0; SMILES CCCCCCCCCCCC(=O)N[C@@H](Cc1c[nH]c2ccccc12)C(=O)N(C)[C@@H](C)C(=O)N[C@@H](CCC(N)=O)C(=O)N[C@H]1CCCCNC(=O)CC[C@@H](C(=O)N[C@@H](Cc2c[nH]cn2)C(=O)N[C@H](C(=O)N[C@H]2CCC(=O)NCCCC[C@@H](C(N)=O)NC(=O)[C@H](Cc3c[nH]c4ccccc34)NC(=O)[C@H](C(C)C)NC(=O)[C@H](CC(=O)O)NC2=O)C2CCCCC2)NC(=O)[C@H](CC(=O)O)NC(=O)[C@H](CC(C)C)NC(=O)[C@H]([C@@H](C)CC)NC1=O; listed as Homo sapiens) [SEQ ID NO: 465]”: the “Cell growth / viability” value in the data set with mouse EMS lesion cells (mouse EMS lesion cells, peptide added daily 0.024-25 uM, 5 days) is listed as “inhibited cell growth”.

One may read the IC50 as the concentration needed to halve the response being measured. Higher therefore signals weaker potency. For orientation: Kd means a measure of binding affinity in units of concentration. Usually viability stands for a read-out of living cells in per cent, often relative to untreated cells. As usually defined, the EC50 is the concentration needed to bring the measured effect to its halfway point. The low end stands for higher potency in that assay, the high end for lower potency in that assay.
